Source: patent publication US20060069132A1, “Azolecarboxamide herbicides” (priority 2004, published 2006)

Key:
rice [1] = test: Test B pre-/postemergence herbicide test; format: in vivo, Oryza sativa; conditions: preemergence
Procedure, shortened: (§1)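 Herbicidal effect was judged by eye on a 0–100 scale after plants stood 13 to 15 days in the greenhouse following pre- or postemergence treatment with surfactant-containing formulations.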

large crabgrass [2] = test: Test A pre-/postemergence herbicide test; format: in vivo, Digitaria sanguinalis
Procedure, shortened: (§2)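 Visual injury rating on a 0–100 scale (0 no effect, 100 complete control) versus untreated controls, about ten days after treatment in greenhouse. Pre: directed soil spray onto seeded sandy loam. Post: spray to runoff on plants 2–10 cm tall at one- to two-leaf stage.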

[3] = tested on: small flower umbrella sedge; test: Test B flooded paddy test; format: in vivo, Cyperus difformis; conditions: 1000 g ai/ha, visual rating, scale 0 to 100 (0 no effect, 100 complete control), 13 to 15 days
Procedure, shortened: (§3)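 Visual ratings, 0 (no effect) to 100 (complete control), made versus controls after 13–15 d greenhouse. Paddy plants treated at 2-leaf stage; postemergence plants at 1- to 4-leaf stage, 2–18 cm tall.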

barnyardgrass [4] = test: Test A pre-/postemergence herbicide test; format: in vivo, Echinochloa crus-galli
Procedure, shortened: as §2

velvetleaf [5] = test: Test A pre-/postemergence herbicide test; format: in vivo, Abutilon theophrasti
Procedure, shortened: as §2

morningglory [6] = test: Test A pre-/postemergence herbicide test; format: in vivo, Ipomoea spp.
Procedure, shortened: as §2

wheat = test: Test B postemergence herbicide test; format: in vivo, Triticum aestivum; design: key to Wheat plant response rating: 0 = no effect, 100 = complete control; conditions: postemergence, visual rating, scale 0 (no effect) to 100 (complete control)
Procedure, shortened: (§4)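 Plants grow to 1- to 4-leaf stage (2–18 cm) for postemergence spraying, or to 2-leaf stage for the paddy test. Formulated compound is applied. Greenhouse holding lasts 13–15 days. Response is scored visually relative to controls, 0 no effect to 100 complete control; a dash means no result.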

large crabgrass [7] = test: Test B pre-/postemergence herbicide test; format: in vivo, Digitaria sanguinalis; conditions: for Crabgrass, Large plant response rating: postemergence, visual rating, scale 0 (no effect) to 100 (complete control)
Procedure, shortened: as §1

corn = test: Test B pre-/postemergence herbicide test; format: in vivo, Zea mays; conditions: for Corn plant response rating: postemergence, visual rating, scale 0 (no effect) to 100 (complete control)
Procedure, shortened: as §1

pigweed = test: Test B pre-/postemergence herbicide test; format: in vivo, Amaranthus retroflexus; conditions: for Pigweed plant response rating: postemergence, visual rating, scale 0 (no effect) to 100 (complete control)
Procedure, shortened: as §1

Surinam grass = test: Test B pre-/postemergence herbicide test; format: in vivo, Urochloa decumbens; conditions: for Surinam Grass plant response rating: postemergence, visual rating, scale 0 (no effect) to 100 (complete control)
Procedure, shortened: as §1

cocklebur = test: Test B pre-/postemergence herbicide test; format: in vivo, Xanthium strumarium; conditions: for Cocklebur plant response rating: postemergence, visual rating, scale 0 (no effect) to 100 (complete control)
Procedure, shortened: (§5)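 Visual rating, 0 (no effect) to 100 (complete control), versus untreated controls after 13–15 d in greenhouse. Pre- and postemergence applications (postemergence plants 2–18 cm, 1–4 leaves); flooded paddy arm at 2-leaf stage. Compounds in non-phytotoxic solvent plus surfactant.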

barnyardgrass [8] = test: Test B pre-/postemergence herbicide test; format: in vivo, Echinochloa crus-galli; conditions: for Barnyardgrass plant response rating: postemergence, visual rating, scale 0 (no effect) to 100 (complete control)
Procedure, shortened: as §5

rice [9] = test: Test B flooded paddy test; format: in vivo, Oryza sativa; conditions: 1000 g ai/ha, visual rating, scale 0 to 100 (0 no effect, 100 complete control), 13 to 15 days
Procedure, shortened: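 Treated at 2-leaf (paddy) or 1–4-leaf, 2–18 cm (postemergence); greenhouse 13–15 d; visual score vs control, 0 none to 100 complete control; dash = not tested.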

giant foxtail [10] = test: Test B pre-/postemergence herbicide test; format: in vivo, Setaria faberi; conditions: for Foxtail, Giant plant response rating: postemergence, visual rating, scale 0 (no effect) to 100 (complete control)
Procedure, shortened: as §1

lambsquarters = test: Test B pre-/postemergence herbicide test; format: in vivo, Chenopodium album; conditions: for Lambsquarters plant response rating: postemergence, visual rating, scale 0 (no effect) to 100 (complete control)
Procedure, shortened: as §1

velvetleaf [11] = test: Test B pre-/postemergence herbicide test; format: in vivo, Abutilon theophrasti; conditions: for Velvetleaf plant response rating: postemergence, visual rating, scale 0 (no effect) to 100 (complete control)
Procedure, shortened: as §1

blackgrass = test: Test B postemergence herbicide test; format: in vivo, Alopecurus myosuroides; conditions: postemergence, visual rating, scale 0 (no effect) to 100 (complete control)
Procedure, shortened: as §3

morningglory [12] = test: Test B pre-/postemergence herbicide test; format: in vivo, Ipomoea coccinea; conditions: for Morningglory plant response rating: postemergence, visual rating, scale 0 (no effect) to 100 (complete control)
Procedure, shortened: as §5

giant foxtail [13] = test: Test A pre-/postemergence herbicide test; format: in vivo, Setaria faberi
Procedure, shortened: as §2

wild oat = test: Test B postemergence herbicide test; format: in vivo, Avena fatua; conditions: postemergence, visual rating, scale 0 (no effect) to 100 (complete control)
Procedure, shortened: as §4

ducksalad = test: Test B flooded paddy test; format: in vivo, Heteranthera limosa; conditions: 1000 g ai/ha, visual rating, scale 0 to 100 (0 no effect, 100 complete control), 13 to 15 days
Procedure, shortened: as §3

barnyardgrass [14] = test: Test B flooded paddy test; format: in vivo, Echinochloa crus-galli; conditions: 1000 g ai/ha, visual rating, scale 0 to 100 (0 no effect, 100 complete control), 13 to 15 days
Procedure, shortened: as §3

redroot pigweed = test: Test A pre-/postemergence herbicide test; format: in vivo, Amaranthus retroflexus
Procedure, shortened: as §2

[15] = Postemergence, 500 g ai/ha, 0 to 100 scale, 0 no effect, 100 complete control
[16] = Postemergence, 2000 g ai/ha, 0 to 100 scale, 0 no effect, 100 complete control
[17] = Preemergence, 2000 g ai/ha, visual rating, 0 to 100 scale (0 no effect, 100 complete control)
[18] = preemergence, 500 g ai/ha, visual injury, 0 to 100 scale (0 no effect, 100 complete control)
[19] = 125 g ai/ha, 0 = no effect, 100 = complete control, preemergence
[20] = 500 g ai/ha, visual rating 0-100, 0 no effect, 100 complete control, preemergence

Cc1nn(C(C)(C)C)cc1C(=O)Nc1cccc(OC(C)C)c1 [Compound 189]
Rice plant response rating (0 to 100 scale) (rice [1]; 125 g ai/ha, 0 = no effect, 100 = complete control): 0 | Plant response rating, Rice (rice [1]; 500 g ai/ha, visual rating 0-100, 0 no effect, 100 complete control): 50 | Crabgrass, Large plant response rating (large crabgrass [2]; [15]): 10 | Plant response rating, Crabgrass, Large (large crabgrass [2]; [16]): 10 | Crabgrass, Large plant response rating (large crabgrass [2]; [17]): 75 | Crabgrass, Large plant response rating (large crabgrass [2]; [18]): 55 | Sedge, Umbrella plant response rating [3]: 70 | Barnyardgrass plant response rating (barnyardgrass [4]; [15]): 0 | Plant response rating, Barnyardgrass (barnyardgrass [4]; [16]): 10 | Barnyardgrass plant response rating (barnyardgrass [4]; [17]): 65 | Barnyardgrass plant response rating (barnyardgrass [4]; [18]): 35 | Velvetleaf plant response rating (velvetleaf [5]; [15]): 5 | Plant response rating, Velvetleaf (velvetleaf [5]; [16]): 5 | Velvetleaf plant response rating (velvetleaf [5]; [17]): 25 | Velvetleaf plant response rating (velvetleaf [5]; [18]): 10 | Morningglory plant response rating (morningglory [6]; [15]): 10 | Plant response rating, Morningglory (morningglory [6]; [16]): 10 | Morningglory plant response rating (morningglory [6]; [17]): 30 | Morningglory plant response rating (morningglory [6]; [18]): 15 | Wheat plant response rating (wheat; 125 g ai/ha): 0 | Wheat plant response rating (wheat; 500 g ai/ha): 0 | Crabgrass, Large plant response rating (0 to 100 scale) (large crabgrass [7]; [19]): 30 | Plant response rating, Crabgrass, Large (large crabgrass [7]; [20]): 60 | Crabgrass, Large plant response rating (large crabgrass [7]; 125 g ai/ha): 10 | Crabgrass, Large plant response rating (large crabgrass [7]; 500 g ai/ha): 20 | Corn plant response rating (0 to 100 scale) (corn; [19]): 0 | Plant response rating, Corn (corn; [20]): 0 | Corn plant response rating (corn; 125 g ai/ha): 10 | Corn plant response rating (corn; 500 g ai/ha): 10 | Pigweed plant response rating (0 to 100 scale) (pigweed; [19]): 90 | Plant response rating, Pigweed (pigweed; [20]): 100 | Pigweed plant response rating (pigweed; 125 g ai/ha): 30 | Pigweed plant response rating (pigweed; 500 g ai/ha): 60 | Surinam Grass plant response rating (0 to 100 scale) (Surinam grass; [19]): 0 | Plant response rating, Surinam Grass (Surinam grass; [20]): 20 | Surinam Grass plant response rating (Surinam grass; 125 g ai/ha): 10 | Surinam Grass plant response rating (Surinam grass; 500 g ai/ha): 20 | Cocklebur plant response rating (0 to 100 scale) (cocklebur; [19]): 0 | Plant response rating, Cocklebur (cocklebur; [20]): 0 | Cocklebur plant response rating (cocklebur; 125 g ai/ha): 0 | Cocklebur plant response rating (cocklebur; 500 g ai/ha): 10 | Barnyardgrass plant response rating (0 to 100 scale) (barnyardgrass [8]; [19]): 0 | Plant response rating, Barnyardgrass (barnyardgrass [8]; [20]): 30 | Barnyardgrass plant response rating (barnyardgrass [8]; 125 g ai/ha): 0 | Barnyardgrass plant response rating (barnyardgrass [8]; 500 g ai/ha): 10 | Rice plant response rating (rice [9]): 40 | Foxtail, Giant plant response rating (0 to 100 scale) (giant foxtail [10]; [19]): 0 | Plant response rating, Foxtail, Giant (giant foxtail [10]; [20]): 10 | Foxtail, Giant plant response rating (giant foxtail [10]; 125 g ai/ha): 0 | Foxtail, Giant plant response rating (giant foxtail [10]; 500 g ai/ha): 10 | Lambsquarters plant response rating (0 to 100 scale) (lambsquarters; [19]): 0 | Plant response rating, Lambsquarters (lambsquarters; [20]): 30 | Lambsquarters plant response rating (lambsquarters; 125 g ai/ha): 50 | Lambsquarters plant response rating (lambsquarters; 500 g ai/ha): 50 | Velvetleaf plant response rating (0 to 100 scale) (velvetleaf [11]; [19]): 0 | Plant response rating, Velvetleaf (velvetleaf [11]; [20]): 20 | Velvetleaf plant response rating (velvetleaf [11]; 125 g ai/ha): 20 | Velvetleaf plant response rating (velvetleaf [11]; 500 g ai/ha): 20 | Blackgrass plant response rating (blackgrass; 125 g ai/ha): 0 | Blackgrass plant response rating (blackgrass; 500 g ai/ha): 0 | Plant response rating, Morningglory (morningglory [12]; [20]): 20 | Morningglory plant response rating (morningglory [12]; 125 g ai/ha): 80 | Morningglory plant response rating (morningglory [12]; 500 g ai/ha): 90 | Foxtail, Giant plant response rating (giant foxtail [13]; [15]): 0 | Plant response rating, Foxtail, Giant (giant foxtail [13]; [16]): 0 | Foxtail, Giant plant response rating (giant foxtail [13]; [17]): 20 | Foxtail, Giant plant response rating (giant foxtail [13]; [18]): 5 | Oat, Wild plant response rating (wild oat; 125 g ai/ha): 10 | Oat, Wild plant response rating (wild oat; 500 g ai/ha): 10 | Ducksalad plant response rating (ducksalad): 70 | Barnyardgrass plant response rating (barnyardgrass [14]): 60 | Pigweed plant response rating (redroot pigweed; [15]): 30 | Plant response rating, Pigweed (redroot pigweed; [16]): 45 | Pigweed plant response rating (redroot pigweed; [17]): 40 | Pigweed plant response rating (redroot pigweed; [18]): 25
